Data from patent US20080138280A1, “Composition and Methods For Inhibiting Cell Survival” (The Cleveland Clinic Foundation, priority 2003, published 2008).

Experiments:
[1] = system: NF-κB DNA binding activity; assay: Electrophoretic mobility shift assay (EMSA) of NF-κB DNA binding activity, A375 cells; type: cell-based, human
Procedure: Electrophoretic mobility shift assay (EMSA). These methods apply generally to FIGS. 5, 9-10 which employ EMSA analysis. In FIG. 5, A375 cells were treated with NO donors (NO-Cbl, NOC-18, SNAP, 100 μM, 16 h), or with Apo2L/TRAIL (100 ng/ml) or TNF-α (20 ng/ml) for 1 h, or with the combination of NO donors (16 h) followed by Apo2L/TRAIL or TNF-α (1 h). Plates were washed twice with ice-cold PBS. Cells were resuspended in cold 1× lysis buffer (20 mM HEPES, 20 mM NaF, 1 mM Na3VO4, 1 mM EDTA, 1 mM DTT, 100 mM NaCl, 10% glycerol and protease inhibitors) and incubated on ice for 30 min followed by centrifugation at 4° C. at 10,000 rpm for 10 min. Supernatants were transferred to fresh tubes and protein concentrations were assessed using the Bradford method (Bio-RAD protein assay, BioRad, Hercules, Calif.). The NF-κB consensus binding sequence (5′[…] 3′) from the IFN-β gene promoter was end-labeled with γ^32P dATP ([…]) using T4 polynucleotide kinase. DNA binding reactions were performed in 20 μl volume containing 10 μg protein, 20 mM HEPES, 10 mM KCl, 0.1% NP-40, 0.5 mM DIT and 10% glycerol. The binding reaction was performed for 20 min at 25° C. Complexes were separated from the free probe on 6% non-denaturing polyacrylamide gels in 0.5×TBE buffer at 200 V for 2 h. Gels were dried and exposed to film.
Inhibition of NF-κB survival signaling by NO-Cbl. Because NF-κB is an important cell survival regulator, we examined the effects of NO-Cbl on NF-κB DNA binding activity. The NF-κB binding sequence from the IFN-β gene promoter was used as a probe to assess DNA binding activity. A375 cells were treated with TNF-α (20 ng/ml), Apo2L/TRAIL (100 ng/ml) or NO-Cbl (100 μM). FIG. 5, illustrates an Electrophoretic Mobility Shift Assay (EMSA) of NF-κB DNA binding activity. Pre-treatment of A375 cells with NO-Cbl inhibited the NF-κB DNA binding activity induced by Apo2L/TRAIL and TNF-α. […] NF-κB-luc transfected A375 cells were pre-treated with NO-Cbl followed by Apo2L/TRAIL or TNF-α. […] Cell lysates were analyzed for NF-κB-luc reporter activity. […]

[2] = system: phospho-IκBα in A375 cells; assay: Western blot analysis of IκBα phosphorylation; type: cell-based, human; conditions: pre-treatment 100 μM
Procedure: Gel Electrophoresis and Immunoblot analyses. Please see FIG. 4. Whole cell lysates were prepared in 1× lysis buffer (50 mM Tris-Cl, pH 8.0, 1% Triton×100, 10% glycerol, 1 mM EDTA, 250 mM NaCl, 1 mM DTT, 1 mM PMSF, 10 μg/ml aprotinin, 10 μg/ml leupeptin, and 10 μg/ml pepstatin) for subsequent immunoblotting studies. The SDS-PAGE was conducted by using the Laemmli buffer system and 12% polyacrylamide gels. Proteins were transferred onto PVDF membranes by the semidry method (Trans Blot SD, BioRad, Hercules, Calif.). Binding of the primary and secondary antibodies was performed according to standard protocols. Membranes were immunoblotted with pAb to caspase-3, caspase-8, XIAP (BD-Pharmingen, San Diego, Calif.), PARP (BioMOL, Plymouth Meeting, Pa.), cIAP-1, FLIP, pIκBα and IκBα (Cell Signaling, Beverly, Mass.) followed by incubation with HRP conjugated secondary antibodies (Pierce, Rockford, Ill.). Immunoreactive bands were visualized by using enhanced chemiluminescence (Perkin Elmer, Boston, Mass.). Equal protein loading was confirmed by reprobing with monoclonal anti-actin antibody (Sigma Chemicals Co, St. Louis, Mo.). All immunoblots in this study were repeated 3 times with reproducible results.
NO-Cbl treatment affected the phosphorylation state of IκBα, the prototypic inhibitor of NF-κB. Western blot analysis was performed to assess levels of phospho-IκBα and IκBα. FIG. 6 is a Western blot analysis of IκB levels and IκBα phosphorylation. IκBα and phospho-IκBα protein levels were determined in A375 whole cell lysates. […] NO-Cbl, NOC-18, and SNAP pre-treatment all inhibited Apo2L/TRAIL-induced IκBα phosphorylation.

## nitrosylcobalamin [NO-Cbl]
[1]; NO donor 100 μM pre-treatment 16 h, Apo2L/TRAIL 100 ng/ml 1 h
  NF-κB DNA binding activity induced by Apo2L/TRAIL: inhibited
[1]; NO-Cbl 100 μM pre-treatment 16 h, TNF-α 20 ng/ml 1 h
  NF-κB DNA binding activity induced by TNF-α: inhibited
[2]; Apo2L/TRAIL 100 ng/ml
  IκBα phosphorylation induced by Apo2L/TRAIL: blocked
[2]; TNF-α 20 ng/ml
  IκBα phosphorylation induced by TNF-α: blocked
